Read-outs that look alike come from different tables or passages of the source.
Experiments:
HCMV (Davis) = assay: Anti-HCMV screening test: inhibition of the cytopathogenic effect in HELF cell cultures; format: cell-based, human cytomegalovirus; details: for IC50: HCMV (Davis)-infected HELF cells, 6 days, concentration causing 50% inhibition of the CPE; for SI: selectivity index, defined by footnote 3 (drawing 26), HELF CIC50 versus HCMV IC50
Method: (§1) The anti-HCMV effect was determined in a screening test system in 96-well microtitre plates, making use of human embryonic lung fibroblasts (HELF) cell cultures. The influence of the substances on the spread of the cytopathogenic effect was compared with that of the reference substance ganciclovir (Cymevene® sodium), a clinically approved anti-HCMV chemotherapeutic agent.
(§2) The substances dissolved in DMSO (dimethyl sulphoxide) (at 50 mM concentration) are investigated on microtitre plates (96-well) at final concentrations of 1,000-0.00048 μM (micromolar) in double determinations (4 substances/plate). The conditions are such that both toxic and cytostatic effects of the substances are recorded. Once the appropriate substance dilutions (1:2) have been made on the microtitre plate, a suspension of 50-100 HCMV-infected HELF cells and 3×10^4 non-infected HELF cells in Eagle's MEM (minimal essential medium) containing 10% foetal calf serum is added to each well and the plates are then incubated at 37° C. in a CO2 incubator for a period of 6 days. […] After staining with neutral red and fixing with formalin/methanol, the plates are evaluated with the aid of a projection microscope (plaque viewer).

[1] = system: human embryonic lung fibroblasts (HELF); assay: Anti-cellular effect on HELF cells in the anti-HCMV screening test
Method: as §1, §2

Compound	IC50 (HCMV (Davis); Human betaherpesvirus 5, 144 h) [nM]	SI (HCMV (Davis))	CIC50 (HELF) ([1]; HELF cells, 6 days incubation, highest concentration which does not show any obvious anticellular effect) [µM]	IC50 (HCMV (Davis)) [nM]	CIC50 (HELF) [1] [µM]
Nc1nc(O)c2ncn(COC(CO)CO)c2n1 [Cymevene.Na, ganciclovir]	2000 to 4000	32-64	125		
Cc1ccc(S(=O)(=O)NC(=N)NCCC[C@H](NC(=O)OCc2ccccc2)C(=O)N[C@H](C(=O)NC(C=O)Cc2ccccc2)C(C)(C)C)cc1 (stereo partly drawn) [Example 50, (2R,S)-2-[Nα-(Benzyloxycarbonyl)-N^G -(4-methyl-phenylsulphonyl)-S-arginyl-S-(tert-butyl)glycinyl]amino-3-phenyl-propan-1-al]		700		4	2.8

Reference: US5646121A, “Pseudopeptides with antiviral activity” (Bayer Aktiengesellschaft, priority 1993, dated 1997)
